Patent US7868135B2, “Compositions of lipopeptide antibiotic derivatives and methods of use thereof” (priority 2003, dated 2011)
Starred links: 1 amine or outer side, 2 acyl side, 3 side chain; linkers in the order of their positions; H or OH if unused. Positions of bridges follow the written chain, without caps; N, C: chain ends. Non-standard residues stand in square brackets, D forms with d. Residues, ends and D or L forms follow the SMILES beside them. ξ: configuration not given here. *: point of attachment. ξAbu(βξ-NH2) = CC(N[*:3])C(N[*:1])C(=O)[*:2]; X7 = CC(NC(=O)C1CCNCC1)C(N[*:1])C(=O)[*:2]; Pentadecanoyl = CCCCCCCCCCCCCCC(=O)*; ξAsp(βξ-Me) = CC(C(=O)O)C(N)C(=O)O; X12 = O=C(c1ccc(NN[*:1])cc1)[*:2]; ξAbu(3ξ-NH2) = CC(N)C(N)C(=O)O; Lauroyl = CCCCCCCCCCCC(=O)*; Pip = O=C(O)[CH]1CCCCN1

These compounds were tested on Staphylococcus aureus (MSSA). Details: 24 h.
Method: (“Approved Standard M7-A3”).
The antimicrobial lipopeptide derivatives described herein were tested for antimicrobial activity against Gram-positive bacteria as follows. The minimum inhibitory concentrations (MIC) of the antimicrobial lipopeptide derivatives of the invention were determined using NCCLS guidelines M7-A6 (2003) with a slight modification in that doubling serial dilutions were used to dilute the test compounds. The broth phase microdilution method was used. Isolated colonies of Staphylococcus aureus (MSSA) from an 18-24 hour blood agar plate cultures were used to inoculate cation adjusted Mueller-Hinton broth (CAMHB) supplemented with 0.625 mM calcium. […] A negative control containing media alone and a positive growth control containing bacteria with media alone were also included. MICs were determined after incubating the plates at about 37° C. for 24 hours. […] In Tables 1 to 16, R is the core cyclic peptide of amphomycin or aspartocin, which can be in the form of a β-isomer, an anhydro, a dianhydro, or any combination thereof. […] Furthermore, a person of skill in the art will appreciate that all the pounds, or groups of compounds, derived from the various combinations of and substituents shown in Tables 1 to 16, are disclosed by the present the same extent as if each compound or group of compounds was set forth individually.

Q: Which MIC does the source give for `CCCCCCCCCCCCCCC(=O)NC(CC(=O)O)C(=O)NC1C(=O)N2CCCCC2C(=O)NC(C(C)C(=O)O)C(=O)NC(CC(=O)O)C(=O)NCC(=O)NC(CC(=O)O)C(=O)NCC(=O)NC(C(C)NC(=O)[C@@H](N)CCCCN)C(=O)NC(C(C)C)C(=O)N2CCCC2C(=O)NC1C` (single isomer, unassigned) [Compound 129, C15-Amphomycin-9-Lys] here?
A: 1 µg/mL

Q: How did the MIC turn out when `CCCCCCCCCCCCCCC(=O)NC(CC(=O)O)C(=O)NC1C(=O)N2CCCCC2C(=O)NC(C(C)C(=O)O)C(=O)NC(CC(=O)O)C(=O)NCC(=O)NC(CC(=O)O)C(=O)NCC(=O)NC(C(C)NC(=O)[C@@H](N)CCCCN)C(=O)NC(C(C)C)C(=O)N2CCCC2C(=O)NC1C` (single isomer, unassigned) [Compound 172, C15-Amphomycin-9-Lys] was run?
A: 16 µg/mL

Q: Which MIC does the source give for `CCCCCCCCCCCCCCC(=O)NC(CC(=O)O)C(=O)NC1C(=O)N2CCCCC2C(=O)NC(C(C)C(=O)O)C(=O)NC(CC(=O)O)C(=O)NCC(=O)NC(CC(=O)O)C(=O)NCC(=O)NC(C(C)NC(=O)[C@@H](N)CC(C)C)C(=O)NC(C(C)C)C(=O)N2CCCC2C(=O)NC1C` (stereo partly shown) [Compound 5, C15-Amphomycin-9-Leu] here?
A: 16 to 32 µg/mL

Q: With `CCCCCCCCCC(=O)NC(CC(=O)O)C(=O)NC1C(=O)N2CCCCC2C(=O)NC(C(C)C(=O)O)C(=O)NC(CC(=O)O)C(=O)NCC(=O)NC(CC(=O)O)C(=O)NCC(=O)NC(C(C)N)C(=O)NC(C(C)C)C(=O)N2CCCC2C(=O)NC1C` (stereo not shown) [Compound 6, C10-Amphomycin] as the compound, how does the MIC read?
A: 32 to 64 µg/mL

Q: With `CCCCCCCCCCC(=O)NC(CC(=O)O)C(=O)NC1C(=O)N2CCCCC2C(=O)NC(C(C)C(=O)O)C(=O)NC(CC(=O)O)C(=O)NCC(=O)NC(CC(=O)O)C(=O)NCC(=O)NC(C(C)N)C(=O)NC(C(C)C)C(=O)N2CCCC2C(=O)NC1C` (stereo not shown) [Compound 7, C11-Amphomycin] as the compound, how does the MIC read?
A: 32 to 64 µg/mL

Q: Which MIC does the source give for `CCCCCCCCCCCC(=O)NC(CC(=O)O)C(=O)NC1C(=O)N2CCCCC2C(=O)NC(C(C)C(=O)O)C(=O)NC(CC(=O)O)C(=O)NCC(=O)NC(CC(=O)O)C(=O)NCC(=O)NC(C(C)N)C(=O)NC(C(C)C)C(=O)N2CCCC2C(=O)NC1C` (stereo not shown) [Compound 8, C12-Amphomycin] here?
A: 4 to 8 µg/mL

Q: `CCCCCCCCCCCCC(=O)NC(CC(=O)O)C(=O)NC1C(=O)N2CCCCC2C(=O)NC(C(C)C(=O)O)C(=O)NC(CC(=O)O)C(=O)NCC(=O)NC(CC(=O)O)C(=O)NCC(=O)NC(C(C)N)C(=O)NC(C(C)C)C(=O)N2CCCC2C(=O)NC1C` (stereo not shown) [Compound 9, C13-Amphomycin] was tested. Which MIC did it give?
A: 0.5 to 1 µg/mL

Q: How did the MIC turn out when `CCCCCCCCCCCCCC(=O)NC(CC(=O)O)C(=O)NC1C(=O)N2CCCCC2C(=O)NC(C(C)C(=O)O)C(=O)NC(CC(=O)O)C(=O)NCC(=O)NC(CC(=O)O)C(=O)NCC(=O)NC(C(C)N)C(=O)NC(C(C)C)C(=O)N2CCCC2C(=O)NC1C` (stereo not shown) [Compound 10, C14-Amphomycin] was run?
A: 1 µg/mL

Q: With `CCCCCCCCCCCCCCCCCC(=O)NC(CC(=O)O)C(=O)NC1C(=O)N2CCCCC2C(=O)NC(C(C)C(=O)O)C(=O)NC(CC(=O)O)C(=O)NCC(=O)NC(CC(=O)O)C(=O)NCC(=O)NC(C(C)N)C(=O)NC(C(C)C)C(=O)N2CCCC2C(=O)NC1C` (stereo not shown) [Compound 13, C18-Amphomycin] as the compound, how does the MIC read?
A: 2 µg/mL

Q: Which MIC does the source give for `CCCCCCCCCCOc1ccc(C(=O)NC(CC(=O)O)C(=O)NC2C(=O)N3CCCCC3C(=O)NC(C(C)C(=O)O)C(=O)NC(CC(=O)O)C(=O)NCC(=O)NC(CC(=O)O)C(=O)NCC(=O)NC(C(C)N)C(=O)NC(C(C)C)C(=O)N3CCCC3C(=O)NC2C)cc1` (stereo not shown) [Compound 18, CH3—(CH2)9—O-p-Ph-C(═O)-Amphomycin] here?
A: 0.5 to 1 µg/mL

Q: Which MIC does the source give for `CCCCCCCCOc1ccc(C(=O)NC(CC(=O)O)C(=O)NC2C(=O)N3CCCCC3C(=O)NC(C(C)C(=O)O)C(=O)NC(CC(=O)O)C(=O)NCC(=O)NC(CC(=O)O)C(=O)NCC(=O)NC(C(C)N)C(=O)NC(C(C)C)C(=O)N3CCCC3C(=O)NC2C)cc1` (stereo not shown) [Compound 19, CH3—(CH2)7—O-p-Ph-C(═O)-Amphomycin] here?
A: 0.5 µg/mL

Q: With `CCCCCCCCCCCC(=O)NNc1ccc(C(=O)NC(CC(=O)O)C(=O)NC2C(=O)N3CCCCC3C(=O)NC(C(C)C(=O)O)C(=O)NC(CC(=O)O)C(=O)NCC(=O)NC(CC(=O)O)C(=O)NCC(=O)NC(C(C)N)C(=O)NC(C(C)C)C(=O)N3CCCC3C(=O)NC2C)cc1` (stereo not drawn) [Compound 21, C12-p-Hydrazinobenzoic Acid-Amphomycin] (Lauroyl-[X12]D[ξAbu(βξ-NH2)][Pip][ξAsp(βξ-Me)]DGDG[ξAbu(3ξ-NH2)]VP; lactam 3-C; configuration not given here) as the compound, how does the MIC read?
A: 1 µg/mL

Q: For `CCCCCCCCCCCCCCC(=O)NC(CC(=O)O)C(=O)NC1C(=O)N2CCCCC2C(=O)NC(C(C)C(=O)O)C(=O)NC(CC(=O)O)C(=O)NCC(=O)NC(CC(=O)O)C(=O)NCC(=O)NC(C(C)NC(=O)CCCCCN)C(=O)NC(C(C)C)C(=O)N2CCCC2C(=O)NC1C` (stereo not shown) [Compound 25, C15-Amphomycin-9-Ahx], which MIC is on record?
A: 1 µg/mL

Q: For `CCCCCCCCCCCCCCC(=O)NC(CC(=O)O)C(=O)NC1C(=O)N2CCCCC2C(=O)NC(C(C)C(=O)O)C(=O)NC(CC(=O)O)C(=O)NCC(=O)NC(CC(=O)O)C(=O)NCC(=O)NC(C(C)NC(=O)C2CCNCC2)C(=O)NC(C(C)C)C(=O)N2CCCC2C(=O)NC1C` (stereo not drawn) [Compound 26, C15-Amphomycin-9-Ina] (Pentadecanoyl-D[ξAbu(βξ-NH2)][Pip][ξAsp(βξ-Me)]DGDG[X7]VP; lactam 2-C; configuration not given here), which MIC is on record?
A: 4 µg/mL

Q: How did the MIC turn out when `CCCCCCCCCCCCCCC(=O)NC(CC(=O)O)C(=O)NC1C(=O)N2CCCCC2C(=O)NC(C(C)C(=O)O)C(=O)NC(CC(=O)O)C(=O)NCC(=O)NC(CC(=O)O)C(=O)NCC(=O)NC(C(C)NC(=O)[C@@H](N)Cc2ccc([N+](=O)[O-])cc2)C(=O)NC(C(C)C)C(=O)N2CCCC2C(=O)NC1C` (stereo partly shown) [Compound 27, C15-Amphomycin-9-(P—NO2-Phe)] was run?
A: 32 to 64 µg/mL

Q: How did the MIC turn out when `CCCCCCCCCCCCCCC(=O)NC(CC(=O)O)C(=O)NC1C(=O)N2CCCCC2C(=O)NC(C(C)C(=O)O)C(=O)NC(CC(=O)O)C(=O)NCC(=O)NC(CC(=O)O)C(=O)NCC(=O)NC(C(C)NC(=O)CNC(=O)[C@@H](N)Cc2ccccc2)C(=O)NC(C(C)C)C(=O)N2CCCC2C(=O)NC1C` (stereo partly shown) [Compound 28, C15-Amphomycin-9-Gly-Phe] was run?
A: 2 µg/mL

Q: How did the MIC turn out when `CCCCCCCCCCCCCCC(=O)NC(CC(=O)O)C(=O)NC1C(=O)N2CCCCC2C(=O)NC(C(C)C(=O)O)C(=O)NC(CC(=O)O)C(=O)NCC(=O)NC(CC(=O)O)C(=O)NCC(=O)NC(C(C)NC(=O)[C@@H](N)CCC(=O)O)C(=O)NC(C(C)C)C(=O)N2CCCC2C(=O)NC1C` (stereo partly shown) [Compound 29, C15-Amphomycin-9-Glu] was run?
A: 1 µg/mL

Q: How did the MIC turn out when `CCCCCCCCCCCCCCC(=O)NC(CC(=O)O)C(=O)NC1C(=O)N2CCCCC2C(=O)NC(C(C)C(=O)O)C(=O)NC(CC(=O)O)C(=O)NCC(=O)NC(CC(=O)O)C(=O)NCC(=O)NC(C(C)NC(=O)[C@@H](N)Cc2ccc(F)cc2)C(=O)NC(C(C)C)C(=O)N2CCCC2C(=O)NC1C` (stereo partly shown) [Compound 30, C15-Amphomycin-9-(P—F-Phe)] was run?
A: 32 to 64 µg/mL

Q: How did the MIC turn out when `CCCCCCCCCCCCCCC(=O)NC(CC(=O)O)C(=O)NC1C(=O)N2CCCCC2C(=O)NC(C(C)C(=O)O)C(=O)NC(CC(=O)O)C(=O)NCC(=O)NC(CC(=O)O)C(=O)NCC(=O)NC(C(C)NC(=O)[C@@H](N)CC2CCCCC2)C(=O)NC(C(C)C)C(=O)N2CCCC2C(=O)NC1C` (stereo partly drawn) [Compound 31, C15-Amphomycin-9-(β-Cha)] was run?
A: 16 µg/mL

Q: Which MIC does the source give for `CCCCCCCCCCCCCCC(=O)NC(CC(=O)O)C(=O)NC1C(=O)N2CCCCC2C(=O)NC(C(C)C(=O)O)C(=O)NC(CC(=O)O)C(=O)NCC(=O)NC(CC(=O)O)C(=O)NCC(=O)NC(C(C)NC(=O)[C@@H](N)CCc2ccccc2)C(=O)NC(C(C)C)C(=O)N2CCCC2C(=O)NC1C` (stereo partly shown) [Compound 32, C15-Amphomycin-9-hPhe] here?
A: 8 µg/mL

Q: With `CCCCCCCCCCCCCCC(=O)NC(CC(=O)O)C(=O)NC1C(=O)N2CCCCC2C(=O)NC(C(C)C(=O)O)C(=O)NC(CC(=O)O)C(=O)NCC(=O)NC(CC(=O)O)C(=O)NCC(=O)NC(C(C)NC(=O)CNC(=O)CNC(=O)CN)C(=O)NC(C(C)C)C(=O)N2CCCC2C(=O)NC1C` (stereo not drawn) [Compound 33, C15-Amphomycin-9-Gly-Gly-Gly] as the compound, how does the MIC read?
A: 0.5 to 1 µg/mL

Q: Which MIC does the source give for `CCCCCCCCCCCCCCC(=O)NC(CC(=O)O)C(=O)NC1C(=O)N2CCCCC2C(=O)NC(C(C)C(=O)O)C(=O)NC(CC(=O)O)C(=O)NCC(=O)NC(CC(=O)O)C(=O)NCC(=O)NC(C(C)NC(=O)CCCCCCCCCCN)C(=O)NC(C(C)C)C(=O)N2CCCC2C(=O)NC1C` (stereo not shown) [Compound 34, C15-Amphomycin-9-C(═O)—(CH2)10—NH2] here?
A: 32 to 64 µg/mL

Q: For `CCCCCCCCCCCCCCC(=O)NC(CC(=O)O)C(=O)NC1C(=O)N2CCCCC2C(=O)NC(C(C)C(=O)O)C(=O)NC(CC(=O)O)C(=O)NCC(=O)NC(CC(=O)O)C(=O)NCC(=O)NC(C(C)NC(=O)[C@@H](N)CC#N)C(=O)NC(C(C)C)C(=O)N2CCCC2C(=O)NC1C` (stereo partly drawn) [Compound 35, C15-Amphomycin-9-(β-Cyano-Ala)], which MIC is on record?
A: 8 to 16 µg/mL

Q: How did the MIC turn out when `CCCCCCCCCCCCCCC(=O)NC(CC(=O)O)C(=O)NC1C(=O)N2CCCCC2C(=O)NC(C(C)C(=O)O)C(=O)NC(CC(=O)O)C(=O)NCC(=O)NC(CC(=O)O)C(=O)NCC(=O)NC(C(C)NC(=O)[C@@H](N)[C@@H](C)CC)C(=O)NC(C(C)C)C(=O)N2CCCC2C(=O)NC1C` (stereo partly shown) [Compound 36, C15-Amphomycin-9-Ile] was run?
A: 8 to 16 µg/mL

Same assay, conditions: S. aureus (MSSA), CAMHB supplemented with 0.625 mM calcium, 24 hours at about 37° C.; a range = compound tested multiple times

Q: `CCCCCCCCCCCCCC(=O)NC(CC(=O)O)C(=O)NC1C(=O)N2CCCCC2C(=O)NC(C(C)C(=O)O)C(=O)NC(CC(=O)O)C(=O)NCC(=O)NC(CC(=O)O)C(=O)NCC(=O)NC(C(C)NC(=O)CN)C(=O)NC(C(C)C)C(=O)N2CCCC2C(=O)NC1C` (stereo not shown) [Compound 23, C14-Amphomycin-9-Gly] was tested. Which MIC did it give?
A: 23/8-16 μg/mL
